According to patent US8513232B2, “Substituted spirocyclic piperidine derivatives as histamine-3 (H3) receptor ligands” (Cephalon, Inc., priority 2008, dated 2013):
Like-named read-outs stand apart in the source and are kept apart here.

Legend:
human H3 receptor = molecular target: T1, human H3 receptor (Homo sapiens, UniProt Q9Y5N1); assay: Human H3 radioligand binding ([3H]-N-alpha-methylhistamine, SPA)
T1 construct: expressed in transfected cells
Protocol: (§1) Methods: CHO cells stably expressing the human H3 receptor (GenBank: NM_007232) were harvested and cell pellets were frozen (−80° C.). Cell pellets were resuspended in 5 mM Tris-HCl, pH 7.5 with […] and a cocktail of protease inhibitors (Complete Protease Inhibitior Tablets, Roche Diagnostics). Cells were disrupted using a polytron cell homogenizer and the suspension was centrifuged at 1000×g for 10 minutes at 4° C. The pellet was discarded and the supernatant centrifuged at 40,000×g for 30 min at 4° C. This membrane pellet was washed in membrane buffer containing 50 mM Tris-HCl, pH 7.5 with 0.6 mM EDTA, 5 mM MgCl2 and protease inhibitors, recentrifuged as above and the final pellet resuspended in membrane buffer plus 250 mM sucrose and frozen at −80° C.
(§2) Radioligand Binding. Membranes were resuspended in 50 mM Tris HCl (pH 7.4), 5 mM MgCl2, 0.1% BSA. The membrane suspensions (10 μg protein per well) were incubated in a 96 well microtiter plate with [^3H]-N-alpha-methylhistamine (approximately 1 nM final concentration), test compounds at various concentrations (0.01 nM-30 μM) and scintillation proximity beads (Perkin Elmer, FlashBlueGPCR Scintillating Beads) in a final volume of 80 μl for 4 hours at room temperature, protected from light. Non-specific binding was determined in the presence of 10 μM clobenpropit. Radioligand bound to receptor, and therefore in proximity to the scintillation beads, was measured using a MicroBeta scintillation counter.

[1] = molecular target: T2, rat histamine H3 receptor (Rattus norvegicus, UniProt Q9QYN8); assay: Rat H3 radioligand binding ([3H]-N-alpha-methylhistamine, SPA)
T2 construct: encoding the entire 445-amino-acid rat histamine H3 receptor; expressed in transfected cells; membrane preparation
T2 sequence (Q9QYN8 whole entry): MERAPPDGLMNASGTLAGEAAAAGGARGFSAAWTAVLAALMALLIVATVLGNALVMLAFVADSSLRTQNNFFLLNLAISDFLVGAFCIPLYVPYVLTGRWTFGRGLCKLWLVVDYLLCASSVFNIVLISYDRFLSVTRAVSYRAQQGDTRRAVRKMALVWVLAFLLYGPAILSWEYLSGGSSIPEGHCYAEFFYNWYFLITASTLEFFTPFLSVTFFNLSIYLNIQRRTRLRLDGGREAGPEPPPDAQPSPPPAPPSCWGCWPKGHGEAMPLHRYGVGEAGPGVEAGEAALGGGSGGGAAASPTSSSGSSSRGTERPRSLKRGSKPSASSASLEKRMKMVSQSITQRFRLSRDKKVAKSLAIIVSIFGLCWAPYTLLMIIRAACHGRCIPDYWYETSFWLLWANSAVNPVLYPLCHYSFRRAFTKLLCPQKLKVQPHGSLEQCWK
Description: as §1, with “Cell line development and membrane preparation. The rat” for “Methods: CHO cells stably expressing the human”, “cDNA was PCR amplified from reverse-transcribed RNA pooled from rat thalamus, hypothalamus, striatum and prefrontal cortex with a sequence corresponding to by #338-1672 of Genbank file #NM_053506, encoding the entire 445-amino-acid rat histamine H3 receptor. This was engineered into the pIRES-neo3 mammalian expression vector, which was stably transfected into the CHO-A3 cell line (Euroscreen, Belgium), followed by clonal selection by limiting dilution. Cells” for “(GenBank: NM_007232)”
as §2

[2] = Table A, human H3 binding, read-out: Human Ki
[3] = Table A, rat H3 binding, read-out: Rat Ki
[4] = human H3 binding, Table D, read-out: Human H3 Ki
[5] = rat H3 binding, Table D, read-out: Rat H3 Ki
[6] = Human H3 binding, Table B, Examples 136-362, read-out: hum H3 binding Ki
[7] = Rat H3 binding, Table B, Examples 136-362, read-out: rat H3 binding Ki
[8] = Table C, human H3 binding, read-out: Human H3 Ki
[9] = Table C, rat H3 binding, read-out: Rat H3 Ki

T1 sequence (Q9Y5N1 whole entry): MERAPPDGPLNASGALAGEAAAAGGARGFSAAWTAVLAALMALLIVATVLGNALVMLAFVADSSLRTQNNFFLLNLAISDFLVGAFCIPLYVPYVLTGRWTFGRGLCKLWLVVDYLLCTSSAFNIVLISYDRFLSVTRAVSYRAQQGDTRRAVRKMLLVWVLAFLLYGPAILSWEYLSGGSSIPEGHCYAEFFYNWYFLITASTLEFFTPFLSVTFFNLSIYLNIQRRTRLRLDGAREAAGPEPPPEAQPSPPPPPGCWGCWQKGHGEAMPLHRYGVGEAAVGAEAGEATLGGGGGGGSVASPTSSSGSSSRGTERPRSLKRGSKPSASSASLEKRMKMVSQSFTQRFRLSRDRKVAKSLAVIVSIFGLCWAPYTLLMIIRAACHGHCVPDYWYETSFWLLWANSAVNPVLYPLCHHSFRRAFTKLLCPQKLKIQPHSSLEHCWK

**Q.** How did the Ki (human H3 receptor; [2]) turn out when `N#Cc1ncc(-c2ccc3c(c2)COC2(CCN(C4CCC4)CC2)O3)s1` [Example 75] was run?
**A.** < 200 nM

**Q.** What about the Ki [1, 3] of the same molecule?
**A.** < 200 nM

**Q.** Which results are given for `O=C(c1ccc(-c2ccc3c(c2)CCC2(CCN(C4CCC4)CC2)O3)cc1)N1CCOCC1` [Example 99]?
**A.** Ki (human H3 receptor; [2]): < 200 nM; Ki [1, 3]: < 200 nM

**Q.** Which results are given for `CCS(=O)(=O)c1cc(-c2ccc3c(c2)COC2(CCN(C4CCC4)CC2)O3)c[nH]c1=O` [Example 807]?
**A.** Ki (human H3 receptor; [4]): < 200 nM; Ki [1, 5]: < 200 nM

**Q.** For `CNC(=O)c1ccc(-c2ccc3c(c2)COC2(CCN(C4CCC4)CC2)O3)cc1C#N` [Example 179], which Ki (human H3 receptor; [6]) is on record?
**A.** < 200 nM

**Q.** What about the Ki [1, 7] of the same molecule?
**A.** < 200 nM

**Q.** `O=S(=O)(c1ccc(-c2ccc3c(c2)CCC2(CCN(C4CCC4)CC2)O3)cc1)N1CCCC1` [Example 103] was tested. Which Ki (human H3 receptor; [2]) did it give?
**A.** < 200 nM

**Q.** And the Ki [1, 3]?
**A.** < 200 nM

**Q.** `CCOc1ccc(-c2ccc3c(c2)CCC2(CCN(C4CCC4)CC2)O3)cn1` [Example 100] was tested. Which Ki (human H3 receptor; [2]) did it give?
**A.** < 200 nM

**Q.** What about the Ki [1, 3] of the same molecule?
**A.** < 200 nM

**Q.** Which Ki (human H3 receptor; [2]) does the source give for `c1cc(-c2ccc3c(c2)COC2(CCN(C4CCC4)CC2)O3)ccn1` [Example 10] here?
**A.** < 200 nM

**Q.** And the Ki [1, 3]?
**A.** < 200 nM

**Q.** For `CS(=O)(=O)N1CCC(Oc2ccc3c(c2)CCC2(CCN(C4CCC4)CC2)O3)CC1` [Example 408], which Ki (human H3 receptor; [8]) is on record?
**A.** < 200 nM

**Q.** What about the Ki [1, 9] of the same molecule?
**A.** < 200 nM

**Q.** Which Ki (human H3 receptor; read-out: Human H3 Ki) does the source give for `COC1(c2ccc3c(c2)COC2(CCN(C4CCC4)CC2)O3)CC(C(=O)N2CCCC2)C1` (centres unmarked) [Example 540] here?
**A.** < 200 nM

**Q.** What about the Ki ([1]; read-out: Rat H3 kI) of the same molecule?
**A.** < 200 nM

**Q.** With `CC(C)(C)OC(=O)n1cccc1-c1ccc2c(c1)COC1(CCN(C3CCC3)CC1)O2` [Example 706] as the molecule, how does the Ki (human H3 receptor; [4]) read?
**A.** < 200 nM

**Q.** What about the Ki [1, 5] of the same molecule?
**A.** < 200 nM

**Q.** How did the Ki (human H3 receptor; [2]) turn out when `O=S(=O)(NC1CC1)c1ccc(-c2ccc3c(c2)COC2(CCN(C4CCC4)CC2)O3)cc1` [Example 25] was run?
**A.** < 200 nM

**Q.** What about the Ki [1, 3] of the same molecule?
**A.** < 200 nM

**Q.** How did the Ki (human H3 receptor; [2]) turn out when `NC(=O)Cc1ccc(-c2ccc3c(c2)COC2(CCN(C4CCC4)CC2)O3)cc1` [Example 49] was run?
**A.** < 200 nM

**Q.** And the Ki [1, 3]?
**A.** < 200 nM

**Q.** Which Ki (human H3 receptor; [8]) does the source give for `COC1CCN(c2ccc3c(c2)CCC2(CCN(C4CCC4)CC2)O3)CC1` [Example 380] here?
**A.** < 200 nM

**Q.** And the Ki [1, 9]?
**A.** < 200 nM

**Q.** For `c1cncc(-c2ccc3c(c2)COC2(CCN(C4CCC4)CC2)O3)c1` [Example 7], which Ki (human H3 receptor; [2]) is on record?
**A.** < 200 nM

**Q.** And the Ki [1, 3]?
**A.** < 200 nM

**Q.** With `O=C(Nc1cccc(-c2ccc3c(c2)COC2(CCN(C4CCCC4)CC2)O3)c1)c1ccccc1` [Example 62] as the molecule, how does the Ki (human H3 receptor; [2]) read?
**A.** < 200 nM

**Q.** How did the Ki (human H3 receptor; [2]) turn out when `NC(=O)c1ccc(-c2ccc3c(c2)COC2(CCN(C4CCC4)CC2)O3)cc1` [Example 18] was run?
**A.** < 200 nM

**Q.** What about the Ki [1, 3] of the same molecule?
**A.** < 200 nM

**Q.** How did the Ki (human H3 receptor; read-out: Human H3 Ki) turn out when `O=S1(=O)CCC(COc2ccc3c(c2)CCC2(CCN(C4CCC4)CC2)O3)CC1` [Example 500] was run?
**A.** < 200 nM

**Q.** What about the Ki ([1]; read-out: Rat H3 kI) of the same molecule?
**A.** < 200 nM

**Q.** Which results are given for `O=C(c1ccncc1)N1CCN(c2ccc3c(c2)COC2(CCN(C4CCC4)CC2)O3)C(=O)C1` [Example 741]?
**A.** Ki (human H3 receptor; [4]): < 200 nM; Ki [1, 5]: < 200 nM

**Q.** What does the source list for `O=C(c1cccc(-c2ccc3c(c2)OC2(CCN(C4CCC4)CC2)OC3)c1)N1CCCC1` [Example 94]?
**A.** Ki (human H3 receptor; [2]): 200 to 1000 nM; Ki [1, 3]: 200 to 1000 nM

**Q.** What does the source list for `O=C(Nc1ccc2c(c1)COC1(CCN(C3CCC3)CC1)O2)Nc1ccccc1Cl` [Example 185]?
**A.** Ki (human H3 receptor; [6]): < 200 nM; Ki [1, 7]: < 200 nM

**Q.** `COc1ccc(CCc2ccc3c(c2)COC2(CCN(C4CCC4)CC2)O3)cn1` [Example 522] was tested. Which Ki (human H3 receptor; read-out: Human H3 Ki) did it give?
**A.** < 200 nM

**Q.** What about the Ki ([1]; read-out: Rat H3 kI) of the same molecule?
**A.** < 200 nM

**Q.** For `c1cc(-c2ccc3c(c2)COC2(CCN(C4CCC4)CC2)O3)cs1` [Example 13], which Ki (human H3 receptor; [2]) is on record?
**A.** < 200 nM

**Q.** And the Ki [1, 3]?
**A.** < 200 nM

**Q.** With `CS(=O)(=O)c1ccc(-c2ccc3c(c2)COC2(CCN(C4CCC4)CC2)O3)cc1` [Example 21] as the molecule, how does the Ki (human H3 receptor; [2]) read?
**A.** < 200 nM

**Q.** And the Ki [1, 3]?
**A.** < 200 nM

**Q.** What does the source list for `N#Cc1ccc(-c2ccc3c(c2)OC2(CCN(C4CCC4)CC2)O3)cc1` [Example 88]?
**A.** Ki (human H3 receptor; [2]): 200 to 1000 nM; Ki [1, 3]: < 200 nM

**Q.** Which results are given for `Cc1cc(-c2ccc3c(c2)COC2(CCN(C4CCC4)CC2)O3)cnc1OCc1ccccc1` [Example 549]?
**A.** Ki (human H3 receptor; read-out: Human H3 Ki): 200 to 1000 nM; Ki ([1]; read-out: Rat H3 kI): > 1000 nM

**Q.** `Nc1cccc(-c2ccc3c(c2)COC2(CCN(C4CCCC4)CC2)O3)c1` [Example 61] was tested. Which Ki (human H3 receptor; [2]) did it give?
**A.** < 200 nM

**Q.** Which Ki (human H3 receptor; [2]) does the source give for `CC(C)N1CCC2(CC1)OCc1cc(-c3ccc4c(c3)CCO4)ccc1O2` [Example 64] here?
**A.** < 200 nM

**Q.** How did the Ki (human H3 receptor; [2]) turn out when `c1ccc2oc(-c3ccc4c(c3)COC3(CCN(C5CCC5)CC3)O4)cc2c1` [Example 6] was run?
**A.** 200 to 1000 nM

**Q.** `CC(C)N1CCC2(CC1)OCc1cc(-c3cccc(N)c3)ccc1O2` [Example 63] was tested. Which Ki (human H3 receptor; [2]) did it give?
**A.** < 200 nM
